This is an account of results in US8962600B2, “Neuroprotective compounds and their use” (The Medical College of Wisconsin, Inc., priority 2009, dated 2015).

One assay relates to BV2 microglial cells. As to the kind of experiment: LPS-induced iNOS activation (nitrite, Griess reagent) in BV2 microglial cells. It is filed as cell-based, mouse. Particulars: 30 min pretreatment, Griess reagent. On the procedure: Two cell models of neuroinflammation were used to evaluate the anti-neuroinflammatory property of diapocynin including the mouse BV2 microglial cell line, as well as primary microglia isolated from mouse brains. BV2 cells were obtained from the American Tissue Culture Collection. BV2 cells were maintained in RPMI containing 10% FBS and 100 units of pen/strep at 37° C. and 5% CO2. For treatments, RPMI containing 2% FBS and 100 units of pen/strep was used.
Inducible nitric oxide synthase (iNOS or NOS2) activation was assessed by measuring nitrite levels using Griess reagent in a 96-well format (70-72). Each well contained 40,000 BV2 cells or 100,000 primary microglia. BV2 cells were cultured in 150 μl of RPMI containing 10% FBS and pen/strep, and the primary microglia were cultured in DMEM-F12 containing 10% FBS, pen/strep, sodium pyruvate (S/P), Q, and NEAAs. One day after culturing, cells were replaced with 150 μl of their respective complete media containing only 2% FBS. Both cell types were pretreated with diapocynin (10 μM) and apocynin (100 μM) for 30 min before LPS stimulation (1 μg/ml LPS for BV2 cells and 100 ng/ml for primary microglia), and the plates were incubated at 37° C. After 24 hr at 37° C., 100 μl of supernatant were removed and placed into a new 96 well plate, to which 100 μl of Griess reagent were added. The plate was shaken on a plate shaker for 10 min before being read in a plate reader at 540 nm.
This example generally followed the cell culture, treatment, and analysis steps of Example 4 above.
Diapocynin diacetate (diapodiacetate or diapo diace) suppresses LPS-induced NOS-2 in BV2 microglial cells (FIG. 21). BV-2 cells were plated in 96 well plates, 40,000 cells per well, and treated in 150 μl of RPMI containing 2% heat inactivated FBS and penicillin/streptomycin. Diapo diacetate was used on the cells as a 30 min pretreatment, then LPS (1 μg/ml) was added. All treatments were allowed to incubate at 37° C. for 24 hr, starting from the addition of LPS. One hundred microliter aliquots of supernatant from each well were combined with 100 μl of Griess reagent (Sigma) in a 96-well plate and allowed to shake for 10 minutes before being read on the plate reader. The percent nitrite level for the treatments compared to the control was graphed.
For orientation: Griess reagent forms a coloured azo dye with nitrite.

In assay [1] the test system is subchronic MPTP mouse model. Put plainly: Subchronic MPTP mouse model, striatal neurotransmitters by HPLC-EC (Example 2). It counts as in vivo. Particulars: for protection against subchronic MPTP-induced depletion of striatal dopac levels / protection against subchronic MPTP-induced depletion of striatal dopamine levels: MPTP 20 mg/kg i.p. 5 days. Here is the method:
The triphenylphosphonium-conjugated apocynin analogue, Mito-apocynin, acts as a potent mitochondrial targeted antioxidant (MTA). The nigrostriative dopaminergic neurons undergo destruction in a slow and progressive manner in idiopathic PD. In order to mimic this condition in a preclinical mouse model, a subchronic MPTP mouse model was developed. The mouse model used here was similar to that used in Example 3 below. Mice were treated with Mito-apocynin (3 mg/kg, oral gavage) for 1 day followed by subchronic MPTP (20 mg/kg, i.p.) administration for 5 days. Animals were sacrificed 7 days after the last dose of MPTP (Mito-apocynin was administered during the 7 days). Striatal neurotransmitters (dopamine, dopac) were analyzed by HPLC-EC. Similar experiments were performed with apocynin (20 mg/kg, oral gavage; lower doses were also tested but not effective).

For the next assay, the system named is TNF-α. Put plainly: LPS-induced TNF-α release in primary microglia, LUMINEX immunoassay. It is filed as cell-based, mouse. Particulars: apocynin 100 μM, LPS 24 hr. On the procedure: (§1) Primary microglia were obtained from 1-2 day old C57/b16 mouse pups. Upon collection, whole brains were kept in ice-cold DMEM-F12 medium containing 10% FBS, 1× sodium pyruvate, 1× NEAAs, 100 units pen/strep, and Q. After collection, the brains were placed in 0.25% trypsin-EDTA and incubated at 37° C., with gentle shaking every 5-10 min. After 30 min, the trypsin was removed, and the brains are washed in warmed medium twice. After washing, medium was added to the brains, and the brains were homogenized using gentle pipetting, starting with a 25 ml pipette and moving to smaller pipette tips as the brains were broken up. When the brains were sufficiently homogenized to a single-cell suspension, they were filtered with a 70 μm nylon filter, which allowed microglia and astrocytes to be collected. The resultant cell suspension was plated in T-75 flasks and allowed to grow for 12-14 days at 37° C., 5% CO2. […]
(§2) Cytokine levels of BV2 and microglial cells treated with diapocynin were determined by LUMINEX® multiplex immunoassay. […]
(§3) Cytokine standards and controls were adjusted to 40 μl volume and the LUMINEX® Samples were run on a LUMINEX® 200 Total System and analyzed with Multiplex Analysis—LUMINEX® Software (Invitrogen, Carlsbad, Calif.).

The next assay relates to IL-12. As to the kind of experiment: LPS-induced IL-12 release in primary microglia, LUMINEX immunoassay. It counts as cell-based, mouse. The following applies: apocynin 100 μM, LPS 24 hr. Here is the method: as §1, §2, §3
Another assay has as its system G93A mice. The following applies: apocynin 300 mg/kg; cited from earlier work.
The next assay has as its system IL-10. Put plainly: LPS-induced IL-10 release in primary microglia, LUMINEX immunoassay. It is filed as cell-based, mouse. The following applies: apocynin 100 μM, LPS 24 hr. Here is the method:
as §1, §2, §3

The test system of the next assay is IL-1β. As to the kind of experiment: LPS-induced IL-1β release in primary microglia, LUMINEX immunoassay. It counts as cell-based, mouse. Particulars: apocynin 100 μM, LPS 24 hr. On the procedure:
as §1, §2, §3

[2] abbreviates: Mito-apocynin 3 mg/kg oral gavage, sacrifice 7 days after last MPTP dose.

pEC50: −log10 of the molar value.

Diapocynin diacetate: in the assay on BV2 microglial cells (BV2 cells, LPS 1 μg/ml 24 hr), the “LPS-induced NOS-2 (percent nitrite level compared to control)” value was “suppresses”.
For the compound `COc1cc(C(=O)NCC[P+](c2ccccc2)(c2ccccc2)c2ccccc2)ccc1O.[Br-]` [Mito-apocynin], in assay [1] (setting [2]), the “protection against subchronic MPTP-induced depletion of striatal dopac levels” value was “almost completely protected” and the “protection against subchronic MPTP-induced depletion of striatal dopamine levels” value is recorded as “almost completely protected”.
One may read the pEC50 as the EC50 on a negative log10 scale, so that one unit is a factor of ten. For `COc1cc(C(C)=O)ccc1O` [apocynin, Apocynin, reference compound], in assay [1] (apocynin 20 mg/kg oral gavage), the “protection against subchronic MPTP-induced depletion of striatal dopac levels” value was “not” and the “protection against subchronic MPTP-induced depletion of striatal dopamine levels” value is reported as “not”. In addition, the “effect on striatal neurotransmitters (dopamine, dopac)” value in assay [1] (apocynin at doses lower than 20 mg/kg, oral gavage) is “not effective”. Further, in the assay on TNF-α, the “blocking LPS-induced release of TNF-α” value is “also effective”. Also, in the assay with IL-12, the “blocking LPS-induced release of IL-12” value was “also effective”. Besides, the “lifespan of G93A mice” value in the assay with G93A mice is recorded as “markedly enhanced”. Also, in the assay with IL-10, the “blocking LPS-induced release of IL-10” value is “also effective”. Besides, the pEC50 with BV2 microglial cells (Mus musculus, BV-2 cells, LPS 1 μg/ml, non-linear regression of dose response curve, read-out: EC50, block of LPS-induced iNOS activation (nitrite level)) was 4.21. Also, in the assay with IL-1β, the “blocking LPS-induced release of IL-1β” value is listed as “also effective”.
